# PMC12004264 (2025)
# Key:
# [1] = system: G4 Tel (DNA, G4) AGGGTTAGGGTTAGGGTTAGGG; assay: CD melting; settings: K+ (concentration not restated for melting); 8 equiv. ligand; 16 μM
# [2] = system: MYC (DNA, G4) TGAGGGTGGGTAGGGTGGGTAA; assay: CD melting; settings: K+ (concentration not restated for melting); 8 equiv. ligand; 16 μM
# [3] = system: MYC (DNA, G4) TGAGGGTGGGTAGGGTGGGTAA; assay: Hoechst 33258 fluorescent displacement; settings: Hoechst 33258 displaced, quenching nearly 35%; tracking lost at higher ligand
# [4] = system: G4 Tel (DNA, G4) AGGGTTAGGGTTAGGGTTAGGG; assay: fluorescence titration, ligand emission, Hill fit; settings: apparent, ligand 10 μM
# [5] = system: MYC (DNA, G4) TGAGGGTGGGTAGGGTGGGTAA; assay: fluorescence titration, ligand emission, Hill fit; settings: K+ 100 mM, apparent, PBS 20 mM phosphate, pH 6.8, room temperature, ligand 10 μM
# [6] = system: KRAS (DNA, G4) AGGGCGGTGTGGGAAGAGGGAAGAGGGGGAGG; assay: fluorescence titration, ligand emission, Hill fit; settings: K+ 100 mM, apparent, PBS 20 mM phosphate, pH 6.8, room temperature, ligand 10 μM
# [7] = system: ds26 (DNA, duplex) CAATCGGATCGAATTCGATCCGATTG; assay: fluorescence titration, ligand emission, Hill fit; settings: K+ 100 mM, apparent, PBS 20 mM phosphate, pH 6.8, room temperature, ligand 10 μM
Structure (SMILES),ΔTm [1] [°C],ΔTm [2] [°C],binding [3],"KD ([4]; K+ 100 mM, PBS 20 mM phosphate, pH 6.8, room temperature, Hill n 0.98) [µM]","KD ([4]; Na+ (Tris-NaCl), Tris-NaCl buffer, room temperature, Hill n 0.80, buffer alone quenches 31%) [µM]",KD ([5]; Hill n 1.33) [µM],KD ([6]; Hill n 0.97) [µM],KD ([7]; Hill n 0.98) [µM],"KD ([4]; K+ 100 mM, PBS 20 mM phosphate, pH 6.8, room temperature, Hill n 7.83) [µM]","KD ([4]; Na+ (Tris-NaCl), Tris-NaCl buffer, room temperature, Hill n 4.66, buffer alone quenches 44%) [µM]",KD ([5]; Hill n 4.68) [µM],KD ([6]; Hill n 8.07) [µM],KD ([7]; Hill n 15.27) [µM]
COc1ccc(-c2cc3c(cc2-c2cc[n+](C)cc2)c(=O)c2ccccc2n3C)cc1,0.9,10.7,yes,3.30 ± 0.11,2.08 ± 0.07,1.86 ± 0.04,9.62 ± 0.70,14.95 ± 1.00,–,–,–,–,–
COc1ccc(-c2cc3c(cc2-c2ccncc2)c(=O)c2ccccc2n3C)cc1,1.7,6.2,–,–,–,–,–,–,2.58 ± 0.03,3.45 ± 0.05,10.85 ± 0.30,5.51 ± 0.079,3.73 ± 0.02
